Each compound was assayed against T1, SGK1 (Homo sapiens, UniProt O00141) (assay: SGK1 inhibition Assay B (Echo mass spectrometry of phosphorylated peptide product)). Settings: 60 min at room temperature.
T1 sequence (O00141 1-431): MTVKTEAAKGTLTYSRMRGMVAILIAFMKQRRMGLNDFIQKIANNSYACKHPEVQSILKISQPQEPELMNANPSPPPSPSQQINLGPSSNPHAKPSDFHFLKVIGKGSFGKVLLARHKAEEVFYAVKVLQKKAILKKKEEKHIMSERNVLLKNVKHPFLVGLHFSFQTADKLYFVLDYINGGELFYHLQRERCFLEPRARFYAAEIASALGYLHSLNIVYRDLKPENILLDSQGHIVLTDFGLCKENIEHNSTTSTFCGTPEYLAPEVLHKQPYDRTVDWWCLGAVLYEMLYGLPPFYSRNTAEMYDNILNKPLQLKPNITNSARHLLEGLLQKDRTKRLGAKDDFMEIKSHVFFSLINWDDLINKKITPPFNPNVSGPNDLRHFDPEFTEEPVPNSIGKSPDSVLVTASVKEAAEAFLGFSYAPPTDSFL
Type: biochemical
Protocol: 20 μl of 2 nM SGK1 were added in 20 mM Hepes+10 mM MgCl2+0015% Brij-35+4 mM DTT+0.05 mg/ml BSA and the reaction incubated for 60 min at room temperature. The enzymatic reaction was quenched by addition 10 μl of 1% Formic Acid+150 nM Internal Standard: FITC-(Ahx)KKRNRR(pS)VA^—OH (final concentration). The plates are spun down at 3700 RPM for 10 minutes to remove all precipitate. Samples were loaded on to the Sciex Echo Mass Spec attached to a Sciex 6500 equipped with ESI and was used to analyze the phosphorylated peptide product. MRM transition of product and internal standard were monitored at m/z 755 to 937.5 and m/z 757.7 to 941.3 respectively. Peak area of analyte was normalized with internal standard.
Dose response curves were generated to determine the concentration required for inhibiting 50% of the enzyme activity. Compounds were dissolved at 10 mM in dimethylsulfoxide (DMSO) and evaluated at eleven concentrations.
Work on CC(C)N1CC2CCC1CC2Oc1cc(Cl)sc1C(=O)N[C@@H]1CCCN(c2cc(-c3ccc(-n4cnnn4)nc3)n3ncnc(N)c23)C1 (stereo partly drawn) [Example 989, N—((R)-1-(7-(6-(1H-tetrazol-1-yl)pyridin-3-yl)-4-aminopyrrolo[2,1-f][1,2,4]triazin-5-yl)piperidin-3-yl)-5-chloro-3-((2-isopropyl-2-azabicyclo[2.2.2]octan-5-yl)oxy)thiophene-2-carboxamide] yielded an IC50 of 0.9 nM.
CN(C)CC(=O)N1CC2CCC1CC2Oc1cc(Cl)sc1C(=O)N[C@@H]1CCCN(c2cc(-c3ccc(-n4cnnn4)nc3)n3ncnc(N)c23)C1 (stereo partly shown) [Example 990] showed an IC50 of 1 nM.
With CN1CC2CCC1CC2Oc1cc(Cl)sc1C(=O)N[C@@H]1CCCN(c2cc(-c3ccc(=O)n(CC(F)F)c3)n3ncnc(N)c23)C1 (stereo partly drawn) [Example 991, N—((R)-1-(4-amino-7-(1-(2,2-difluoroethyl)-6-oxo-1,6-dihydropyridin-3-yl)pyrrolo[2,1-f][1,2,4]triazin-5-yl)piperidin-3-yl)-5-chloro-3-((2-methyl-2-azabicyclo[2.2.2]octan-5-yl)oxy)thiophene-2-carboxamide] the IC50 was 0.8 nM.
Compound Nc1ncnn2c(-c3ccc(-n4cnnn4)c(F)c3)cc(N3CCC[C@@H](NC(=O)c4sc(Cl)cc4OC4CC5CC4CN5C4COC4)C3)c12 (stereo partly drawn) [Example 994, N—((R)-1-(4-amino-7-(3-fluoro-4-(1H-tetrazol-1-yl)phenyl)pyrrolo[2,1-f][1,2,4]triazin-5-yl)piperidin-3-yl)-5-chloro-3-((2-(oxetan-3-yl)-2-azabicyclo[2.2.1]heptan-5-yl)oxy)thiophene-2-carboxamide] has an IC50 of 0.6 nM.
CC(C)N1CC2(CC(Oc3cc(Cl)sc3C(=O)N[C@@H]3CCCN(c4cc(-c5ccnc(C#N)c5)n5ncnc(N)c45)C3)C2)C1 [Example 995] gave an IC50 of 1 nM.
COC[C@@H](C)NC1CCC(Oc2nc(C)sc2C(=O)N[C@@H]2CCCN(c3cc(C4=CC(=O)OC4)n4ncnc(N)c34)C2)CC1 (stereo partly drawn) [Example 996, N—((R)-1-(4-amino-7-(5-oxo-2,5-dihydrofuran-3-yl)pyrrolo[2,1-f][1,2,4]triazin-5-yl)piperidin-3-yl)-4-((4-(((R)-1-methoxypropan-2-yl)amino)cyclohexyl)oxy)-2-methylthiazole-5-carboxamide] gave an IC50 of 1.1 nM.
Cc1nc(OC2CCC(N3CC(O)C3)CC2)c(C(=O)N[C@@H]2CCCN(c3cc(C4=CC(=O)OC4)n4ncnc(N)c34)C2)s1 (stereo partly drawn) [Example 997, (R)-N-(1-(4-amino-7-(5-oxo-2,5-dihydrofuran-3-y1)pyrrolo[2,1-f] [1,2,4]triazin-5-y1)piperidin-3-y1)-4-((4~(3-hydroxyazetidin-1-yl)cyclohexyl)oxy)-2-methylthiazole-5-carboxamide] gave an IC50 of 0.6 nM.
For Cc1nc(OC2CCC(N3CCC3)CC2)c(C(=O)N[C@@H]2CCCN(c3cc(C4=CC(=O)OC4)n4ncnc(N)c34)C2)s1 (stereo partly drawn) [Example 998, (R)-N-(1-(4-amino-7-(5-oxo-2,5-dihydrofuran-3-y1)pyrrolo[2,1-f] [1,2,4]triazin-5-yl)piperidin-3-y1)-4-((4-(azetidin-1-yl)cyclohexyl)oxy)-2-methylthiazole-5-carboxamide], the IC50 was 1.1 nM.
For Cc1nc(OC2CCC(N3CC(C)C3)CC2)c(C(=O)N[C@@H]2CCCN(c3cc(C4=CC(=O)OC4)n4ncnc(N)c34)C2)s1 (stereo partly drawn) [Example 999, (R)-N-(1-(4-amino-7-(5-oxo-2,5-dihydrofuran-3-y1)pyrrolo[2,1-f] [1,2,4]triazin-5-yl)piperidin-3-y1)-2-methyl-4-((4-(3-methylazetidin-1-yl)cyclohexyl)oxy)thiazole-5-carboxamide], the IC50 was 0.7 nM.
Work on COCC(C)(C)NC1CCC(Oc2nc(C)sc2C(=O)N[C@@H]2CCCN(c3cc(C4=CC(=O)OC4)n4ncnc(N)c34)C2)CC1 (stereo partly drawn) [Example 1000, (R)—N-(1-(4-amino-7-(5-oxo-2,5-dihydrofuran-3-yl)pyrrolo[2,1-f][1,2,4]triazin-5-yl)piperidin-3-yl)-4-((4-((1-methoxy-2-methylpropan-2-yl)amino)cyclohexyl)oxy)-2-methylthiazole-5-carboxamide] yielded an IC50 of 0.7 nM.
